Earlier results, collected in publication PMC13092032, “Unlocking the potential of alkaline polymethacrylates via ionic crosslinking in amorphous solid dispersions” (International Journal of Pharmaceutics: X, 2026).

Conditions: Table 2; no method or source printed

Structure (SMILES): O=C1Nc2ccc(Cl)cc2[C@@](C#CC2CC2)(C(F)(F)F)O1 [Efavirenz]
- Log P: 4.7

Structure (SMILES): Cc1ccc(-c2cc(C(F)(F)F)nn2-c2ccc(S(N)(=O)=O)cc2)cc1 [Celecoxib]
- Log P: 3.5
